Consider nine compounds from PMC3499488, “A Potential Peptide Therapeutic Derived from the Juxtamembrane Domain of the Epidermal Growth Factor Receptor” (PLoS ONE, 2012).

One may read the EC50 as the concentration giving half of the maximal effect.

In data set [1] the test system is MDA-MB-231 cells. The experiment in a line: Cellular entry of FAM-labeled peptides, live-cell fluorescent confocal microscopy. Format: cell-based, human. To be noted: N-terminally FAM-labeled peptide, monitored up to 90 minutes and/or overnight incubation, confocal fluorescence. How it is done:
(§1) MDA-MB-231 cells (1×10^5 cells per plate) were plated on 35 mm glass-bottom plates (MatTek Corporation, Ashland, MA), allowed to adhere overnight, then serum starved overnight and analyzed the following day in HBSS (Hank’s balanced salt solution). For real-time uptake of the FAM-labeled peptides, after recording background images, the FAM-labeled peptides were added and cells were imaged every two minutes over approximately 30 minutes. After 30 minutes, images were taken less frequently. Images from representative timepoints are shown. For overnight treatment, the cells were treated in serum-starved media, exchanged into HBSS the following day and imaged.

In data set [2] the test system is MDA-MB-231 cells. The data set is described as follows: Cell viability assay (CellTiter-Glo). Format: cell-based, human. The text has this:
Assays are run in triplicate.
(In ATP-based viability assays light output follows the ATP content of the culture.)

For the next data set, the system named is NR6 cells. The data set is described as follows: Cellular entry of FAM-labeled peptide, fluorescent confocal microscopy. Format: cell-based. To be noted: FAM-labeled peptide 5 µM, serum starved cells, confocal fluorescence. How it is done: as §1
(§2) FAM-TE-64562 enters in SK-N-MC cells without any effect of EGF pretreatment. Confocal images of overnight serum starved MDA-MB-231 cells before treatment (0 min) and treated for 90 minutes (A) with 5.0 µM […], (B) with 1.25 µM FAM-Tat or (C) with 2.5 µM FAM-Tat for 60 minutes. (D) SK-N-MC were serum starved overnight and treated with FAM-TE-64562 (1.5 µM) for 16 minutes. (E) NR6 cells MC were serum starved overnight and treated with FAM-TE-64562 (5 µM) for 20 minutes. All scale bars are 20 µm. (TIF) Click here for additional data file.

Another data set deals with SK-N-MC cells. The data set is described as above. Format: cell-based, human. To be noted: FAM-labeled peptide 1.5 µM, serum starved cells, confocal fluorescence. How it is done:
as §1, §2

The mark [3] stands for this setting: serum starved overnight (0.1% BSA, no FBS), 24 h treatment, CellTiter-Glo, mean ± S.D. of at least three independent experiments, read-out: EC50± S.D.

Read-outs that look alike come from different tables or passages of the source. Where a SMILES comes first, the peptide text is derived from it.

In the case of `CC[C@H](C)[C@H](NC(=O)[C@H](Cc1c[nH]cn1)NC(=O)[C@H](CCCNC(=N)N)NC(=O)[C@H](CCCNC(=N)N)NC(=O)[C@H](CCCNC(=N)N)NC(=O)c1ccc2c(c1)C(=O)OC21c2ccc(O)cc2Oc2cc(O)ccc21)C(=O)N[C@H](C(=O)N[C@@H](CCCNC(=N)N)C(=O)N[C@@H](CCCCN)C(=O)N[C@@H](CCCNC(=N)N)C(=O)N[C@H](C(=O)N[C@@H](CC(C)C)C(=O)N[C@@H](CCCNC(=N)N)C(=O)N[C@@H](CCCNC(=N)N)C(=O)N[C@@H](CC(C)C)C(=O)N[C@@H](CC(C)C)C(=O)N[C@@H](CCC(N)=O)C(=O)N[C@@H](CCC(=O)O)C(=O)N[C@@H](CCCNC(=N)N)C(=O)O)[C@@H](C)O)C(C)C` [FAM-conjugated E-64562] (HELM PEPTIDE1{[O=C1OC2(c3ccc(O)cc3Oc3cc(O)ccc32)c2ccc(C(=O)[*:2])cc21].R.R.R.H.I.V.R.K.R.T.L.R.R.L.L.Q.E.R}$$$$V2.0), the “fluorescence within the interior of the cell” value in the data set with MDA-MB-231 cells [1] was “did not display any fluorescence within the interior of the cell”.
In the data set on MDA-MB-231 cells [2] (24 h), `CC[C@H](C)[C@H](NC(=O)[C@H](Cc1c[nH]cn1)NC(=O)[C@H](CCCNC(=N)N)NC(=O)[C@H](CCCNC(=N)N)NC(=O)[C@@H](N)CCCNC(=N)N)C(=O)N[C@H](C(=O)N[C@@H](CCCNC(=N)N)C(=O)N[C@@H](CCCCN)C(=O)N[C@@H](CCCNC(=N)N)C(=O)N[C@H](C(=O)N[C@@H](CC(C)C)C(=O)N[C@@H](CCCNC(=N)N)C(=O)N[C@@H](CCCNC(=N)N)C(=O)N[C@@H](CC(C)C)C(=O)N[C@@H](CC(C)C)C(=O)N[C@@H](CCC(N)=O)C(=O)N[C@@H](CCC(=O)O)C(=O)N[C@@H](CCCNC(=N)N)C(=O)O)[C@@H](C)O)C(C)C` [E-64562] (H-RRRHIVRKRTLRRLLQER-OH) gave a concentration giving a half-maximal response (EC50) greater than 100 µM.
Take `CC(C)C[C@H](NC(=O)[C@H](CC(C)C)NC(=O)[C@H](CCCNC(=N)N)NC(=O)[C@H](CCCNC(=N)N)NC(=O)[C@H](C)NC(=O)[C@H](C)NC(=O)[C@H](CCCNC(=N)N)NC(=O)[C@H](CCCCN)NC(=O)[C@H](CCCNC(=N)N)NC(=O)[C@H](C)NC(=O)[C@H](C)NC(=O)[C@H](Cc1c[nH]cn1)NC(=O)[C@H](CCCNC(=N)N)NC(=O)[C@H](CCCNC(=N)N)NC(=O)[C@H](CCCNC(=N)N)NC(=O)CNC(=O)[C@H](CCCNC(=N)N)NC(=O)[C@H](CCCNC(=N)N)NC(=O)[C@H](CCCNC(=N)N)NC(=O)[C@H](CCC(N)=O)NC(=O)[C@H](CCCNC(=N)N)NC(=O)[C@H](CCCNC(=N)N)NC(=O)[C@H](CCCCN)NC(=O)[C@H](CCCCN)NC(=O)[C@@H](N)CCCNC(=N)N)C(=O)N[C@@H](C)C(=O)N[C@@H](C)C(=O)N[C@@H](CCCNC(=N)N)C(=O)O` [T-poly-Ala] (H-RKKRRQRRRGRRRHAARKRAARRLLAAR-OH): the EC50 in the data set with MDA-MB-231 cells [2] (setting [3]) was greater than 100 µM.
For the compound `N=C(N)NCCC[C@H](NC(=O)[C@H](CCCNC(=N)N)NC(=O)[C@H](CCCNC(=N)N)NC(=O)[C@H](CCC(N)=O)NC(=O)[C@H](CCCNC(=N)N)NC(=O)[C@H](CCCNC(=N)N)NC(=O)[C@H](CCCCN)NC(=O)[C@H](CCCCN)NC(=O)[C@@H](N)CCCNC(=N)N)C(=O)NCC(=O)O` [Tat, reference compound] (H-RKKRRQRRRG-OH), in the data set on MDA-MB-231 cells [2] (setting [3]), the EC50 is greater than 100 µM.
As for `CC[C@H](C)[C@H](NC(=O)[C@H](CCCNC(=N)N)NC(=O)[C@H](CC(C)C)NC(=O)[C@H](CC(C)C)NC(=O)[C@H](C)NC(=O)[C@H](CCC(N)=O)NC(=O)[C@H](CC(N)=O)NC(=O)[C@@H]1CCCN1C(=O)[C@H](C)NC(=O)[C@H](CCC(=O)O)NC(=O)CNC(=O)[C@H](CO)NC(=O)[C@@H]1CCCN1C(=O)[C@@H](NC(=O)[C@H](CC(C)C)NC(=O)[C@@H]1CCCN1C(=O)[C@H](CCC(=O)O)NC(=O)[C@@H](NC(=O)CNC(=O)[C@H](CCCNC(=N)N)NC(=O)[C@H](CCCNC(=N)N)NC(=O)[C@H](CCCNC(=N)N)NC(=O)[C@H](CCC(N)=O)NC(=O)[C@H](CCCNC(=N)N)NC(=O)[C@H](CCCNC(=N)N)NC(=O)[C@H](CCCCN)NC(=O)[C@H](CCCCN)NC(=O)[C@@H](N)CCCNC(=N)N)C(C)C)[C@@H](C)O)C(=O)O` [TE-66482] (H-RKKRRQRRRGVEPLTPSGEAPNQALLRI-OH), in the data set with MDA-MB-231 cells [2] (setting [3]), the EC50 is greater than 100 µM.
For the compound `N=C(N)NCCC[C@H](NC(=O)c1ccc2c(c1)C(=O)OC21c2ccc(O)cc2Oc2cc(O)ccc21)C(=O)N[C@@H](CCCCN)C(=O)N[C@@H](CCCCN)C(=O)N[C@@H](CCCNC(=N)N)C(=O)N[C@@H](CCCNC(=N)N)C(=O)N[C@@H](CCC(N)=O)C(=O)N[C@@H](CCCNC(=N)N)C(=O)N[C@@H](CCCNC(=N)N)C(=O)N[C@@H](CCCNC(=N)N)C(=O)NCC(=O)O` [FAM-conjugated Tat, reference compound] (HELM PEPTIDE1{[O=C1OC2(c3ccc(O)cc3Oc3cc(O)ccc32)c2ccc(C(=O)[*:2])cc21].R.K.K.R.R.Q.R.R.R.G}$$$$V2.0), the “fluorescence within the interior of the cell” value in the data set on MDA-MB-231 cells [1] was “did not display any fluorescence within the interior of the cell”.
On the same count and under the same terms, for `CC[C@H](C)[C@H](NC(=O)[C@H](CCCNC(=N)N)NC(=O)[C@H](CC(C)C)NC(=O)[C@H](CC(C)C)NC(=O)[C@H](C)NC(=O)[C@H](CCC(N)=O)NC(=O)[C@H](CC(N)=O)NC(=O)[C@@H]1CCCN1C(=O)[C@H](C)NC(=O)[C@H](CCC(=O)O)NC(=O)CNC(=O)[C@H](CO)NC(=O)[C@@H]1CCCN1C(=O)[C@@H](NC(=O)[C@H](CC(C)C)NC(=O)[C@@H]1CCCN1C(=O)[C@H](CCC(=O)O)NC(=O)[C@@H](NC(=O)CNC(=O)[C@H](CCCNC(=N)N)NC(=O)[C@H](CCCNC(=N)N)NC(=O)[C@H](CCCNC(=N)N)NC(=O)[C@H](CCC(N)=O)NC(=O)[C@H](CCCNC(=N)N)NC(=O)[C@H](CCCNC(=N)N)NC(=O)[C@H](CCCCN)NC(=O)[C@H](CCCCN)NC(=O)[C@H](CCCNC(=N)N)NC(=O)c1ccc2c(c1)C(=O)OC21c2ccc(O)cc2Oc2cc(O)ccc21)C(C)C)[C@@H](C)O)C(=O)O` [FAM-labeled TE-66482] (HELM PEPTIDE1{[O=C1OC2(c3ccc(O)cc3Oc3cc(O)ccc32)c2ccc(C(=O)[*:2])cc21].R.K.K.R.R.Q.R.R.R.G.V.E.P.L.T.P.S.G.E.A.P.N.Q.A.L.L.R.I}$$$$V2.0) the value was “did not display any fluorescence within the interior of the cell”.
Turning to `CC[C@H](C)[C@H](NC(=O)[C@H](Cc1c[nH]cn1)NC(=O)[C@H](CCCNC(=N)N)NC(=O)[C@H](CCCNC(=N)N)NC(=O)[C@H](CCCNC(=N)N)NC(=O)CNC(=O)[C@H](CCCNC(=N)N)NC(=O)[C@H](CCCNC(=N)N)NC(=O)[C@H](CCCNC(=N)N)NC(=O)[C@H](CCC(N)=O)NC(=O)[C@H](CCCNC(=N)N)NC(=O)[C@H](CCCNC(=N)N)NC(=O)[C@H](CCCCN)NC(=O)[C@H](CCCCN)NC(=O)[C@H](CCCNC(=N)N)NC(=O)c1ccc2c(c1)C(=O)OC21c2ccc(O)cc2Oc2cc(O)ccc21)C(=O)N[C@H](C(=O)N[C@@H](CCCNC(=N)N)C(=O)N[C@@H](CCCCN)C(=O)N[C@@H](CCCNC(=N)N)C(=O)N[C@H](C(=O)N[C@@H](CC(C)C)C(=O)N[C@@H](CCCNC(=N)N)C(=O)N[C@@H](CCCNC(=N)N)C(=O)N[C@@H](CC(C)C)C(=O)N[C@@H](CC(C)C)C(=O)N[C@@H](CCC(N)=O)C(=O)N[C@@H](CCC(=O)O)C(=O)N[C@@H](CCCNC(=N)N)C(=O)O)[C@@H](C)O)C(C)C` [FAM-conjugated TE-64562] (HELM PEPTIDE1{[O=C1OC2(c3ccc(O)cc3Oc3cc(O)ccc32)c2ccc(C(=O)[*:2])cc21].R.K.K.R.R.Q.R.R.R.G.R.R.R.H.I.V.R.K.R.T.L.R.R.L.L.Q.E.R}$$$$V2.0), the “time until peptide entered cells” value in the data set with NR6 cells and in the data set with SK-N-MC cells was no more than 15 min in each case.
As to `CC[C@H](C)[C@H](NC(=O)[C@H](CCCNC(=N)N)NC(=O)[C@H](CC(C)C)NC(=O)[C@H](CCC(=O)O)NC(=O)[C@H](CCC(=O)O)NC(=O)[C@H](CC(C)C)NC(=O)[C@H](C)NC(=O)[C@H](CCCNC(=N)N)NC(=O)[C@H](CCC(=O)O)NC(=O)[C@H](CCC(=O)O)NC(=O)[C@@H](NC(=O)[C@H](CCCNC(=N)N)NC(=O)[C@H](C)NC(=O)[C@H](CCCNC(=N)N)NC(=O)[C@H](CCC(=O)O)NC(=O)[C@H](CCC(=O)O)NC(=O)CNC(=O)[C@H](CCCNC(=N)N)NC(=O)[C@H](CCCNC(=N)N)NC(=O)[C@H](CCCNC(=N)N)NC(=O)[C@H](CCC(N)=O)NC(=O)[C@H](CCCNC(=N)N)NC(=O)[C@H](CCCNC(=N)N)NC(=O)[C@H](CCCCN)NC(=O)[C@H](CCCCN)NC(=O)[C@@H](N)CCCNC(=N)N)C(C)C)C(=O)N[C@@H](CCC(=O)O)C(=O)N[C@@H](CCC(=O)O)C(=O)O` [T-control] (H-RKKRRQRRRGEERARVEERALEELRIEE-OH), in the data set with MDA-MB-231 cells [2] (setting [3]), the EC50 was greater than 100 µM.
